Source: ChEMBL document CHEMBL4387735, “Chemically synthesized LYRM03 could inhibit the metastasis of human breast cancer MDA-MB-231 cells in vitro and in vivo” (Bioorg Med Chem Lett, 2019)
The source made the active and inactive calls. The rule behind the calls is not given here.

Legend:
MDA-MB-231 [1] = assay: Cytotoxicity against human MDA-MB-231 cells assessed as reduction in cell viability at 100 ug/ml incubated for 48 hrs by MTT assay; format: cell-based; conditions: mda-mb-231, 48 h
MDA-MB-231 [2] = assay: Antimetastatic activity against human MDA-MB-231 cells xenografted in SCID mouse assessed as reduction in metastasis foci formation in lungs at 100 mg/kg, ip administered 3 times per week by hematoxylin-eosin staining based assay; format: functional, organism-based
[3] = target: Aminopeptidase N (Homo sapiens) (UniProt P15144); conditions: MDA-MB-231, 50 ug/ml
Aminopeptidase N (Homo sapiens), sequence (P15144 whole entry): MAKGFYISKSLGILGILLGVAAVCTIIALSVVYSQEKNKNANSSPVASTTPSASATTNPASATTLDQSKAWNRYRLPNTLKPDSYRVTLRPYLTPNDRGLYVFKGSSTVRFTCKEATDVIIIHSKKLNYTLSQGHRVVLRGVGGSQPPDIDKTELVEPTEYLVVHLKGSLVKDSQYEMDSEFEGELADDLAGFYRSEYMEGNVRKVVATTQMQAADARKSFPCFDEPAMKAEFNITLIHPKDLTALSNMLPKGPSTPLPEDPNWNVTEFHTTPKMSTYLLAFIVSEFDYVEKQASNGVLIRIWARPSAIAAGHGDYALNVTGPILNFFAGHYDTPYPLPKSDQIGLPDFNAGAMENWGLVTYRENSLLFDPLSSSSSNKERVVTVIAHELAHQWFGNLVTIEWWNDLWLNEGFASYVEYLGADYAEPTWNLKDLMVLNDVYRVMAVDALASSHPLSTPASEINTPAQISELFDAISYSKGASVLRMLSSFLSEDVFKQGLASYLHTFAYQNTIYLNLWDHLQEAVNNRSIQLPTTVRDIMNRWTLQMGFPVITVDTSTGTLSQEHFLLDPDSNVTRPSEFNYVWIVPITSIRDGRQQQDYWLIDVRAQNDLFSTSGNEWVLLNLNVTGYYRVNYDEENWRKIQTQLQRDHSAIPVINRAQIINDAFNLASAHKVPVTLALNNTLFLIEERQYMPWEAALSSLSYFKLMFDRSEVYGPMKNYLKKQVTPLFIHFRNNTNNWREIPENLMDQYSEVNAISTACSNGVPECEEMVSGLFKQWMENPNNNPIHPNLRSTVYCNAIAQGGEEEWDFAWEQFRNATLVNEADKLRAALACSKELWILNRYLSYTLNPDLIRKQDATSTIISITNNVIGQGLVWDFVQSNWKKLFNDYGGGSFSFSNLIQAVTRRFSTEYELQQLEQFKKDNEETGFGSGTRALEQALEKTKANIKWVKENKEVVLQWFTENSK
Description: Inhibition of human APN in MDA-MB-231 cells at 50 ug/ml using L-leucine-p-nitroanilide as a substrate incubated for 1 hr by spectrophotometric method relative to control

MDA-MB-231 [4] = assay: Effect on MMP7 protein expression in human MDA-MB-231 cells; format: functional, cell-based
MDA-MB-231 [5] = assay: Effect on MMP2 protein expression in human MDA-MB-231 cells; format: functional, cell-based
MDA-MB-231 [6] = assay: Induction of apoptosis in human MDA-MB-231 cells assessed as late apoptotic cells at 50 ug/ml by Annexin V/PI staining based flow cytometric method (reference value: 0.92%); format: functional
MDA-MB-231 [7] = assay: Induction of apoptosis in human MDA-MB-231 cells assessed as necrotic cells at 100 ug/ml by Annexin V/PI staining based flow cytometric method (reference value: 7.79%); format: functional
MDA-MB-231 [8] = assay: Induction of apoptosis in human MDA-MB-231 cells assessed as late apoptotic cells at 100 ug/ml by Annexin V/PI staining based flow cytometric method (reference value: 0.92%); format: functional
MDA-MB-231 [9] = assay: Antimetastatic activity in human MDA-MB-231 cells assessed as reduction in cell migration at 50 to 100 ug/ml incubated for 24 hrs by transwell assay; format: functional, cell-based
MDA-MB-231 [10] = assay: Induction of apoptosis in human MDA-MB-231 cells assessed as live cells at 50 ug/ml by Annexin V/PI staining based flow cytometric method (reference value: 90.75%); format: functional
MDA-MB-231 [11] = assay: Induction of apoptosis in human MDA-MB-231 cells assessed as induction of PARP cleavage at 10 to 100 ug/ml 6 to 48 hrs by Western blot analysis; format: functional, cell-based
MDA-MB-231 [12] = assay: Induction of apoptosis in human MDA-MB-231 cells assessed as live cells at 100 ug/ml by Annexin V/PI staining based flow cytometric method (reference value: 90.75%); format: functional
MDA-MB-231 [13] = assay: Induction of apoptosis in human MDA-MB-231 cells assessed as necrotic cells at 50 ug/ml by Annexin V/PI staining based flow cytometric method (reference value: 7.79%); format: functional
MDA-MB-231 [14] = assay: Effect on APN protein expression in human MDA-MB-231 cells at 10 to 100 ug/ml by Western blot analysis; format: functional, cell-based
MDA-MB-231 [15] = assay: Inhibition of colony formation in human MDA-MB-231 cells at 50 to 100 ug/ml incubated for 10 days; format: functional, cell-based
MDA-MB-231 [16] = assay: Effect on MMP9 protein expression in human MDA-MB-231 cells; format: functional, cell-based
[17] = target: Aminopeptidase N (Homo sapiens) (UniProt P15144); assay: Inhibition of human APN in MDA-MB-231 cells at >50 ug/ml using L-leucine-p-nitroanilide as a substrate incubated for 1 hr by spectrophotometric method relative to control; format: cell-based
MDA-MB-231 [18] = assay: Inhibition of cell migration in human MDA-MB-231 cells incubated upto to 24 hrs by wound healing assay; format: functional, cell-based
MDA-MB-231 [19] = assay: Induction of apoptosis in human MDA-MB-231 cells assessed as early apoptotic cells at 50 ug/ml by Annexin V/PI staining based flow cytometric method (reference value: 0.54%); format: functional
MDA-MB-231 [20] = assay: Inhibition of cell migration in human MDA-MB-231 cells assessed as scratch healing at 10 to 100 ug/ml incubated for 24 hrs by wound healing assay; format: functional; set-up: scale not given: the % may be the effect or the level left
MDA-MB-231 [21] = assay: Induction of apoptosis in human MDA-MB-231 cells assessed as early apoptotic cells at 100 ug/ml by Annexin V/PI staining based flow cytometric method (reference value: 0.54%); format: functional
MDA-MB-231 [22] = assay: Cytotoxicity against human MDA-MB-231 cells assessed as reduction in cell viability at 100 ug/ml incubated for 24 to 48 hrs by MTT assay relative to control; format: cell-based
MDA-MB-231 [23] = assay: Antimigratory activity in human MDA-MB-231 cells assessed as induction of slow cell migration at 100 ug/ml incubated up to 24 hrs by wound healing assay; format: functional, cell-based

`CC(C)C[C@H](NC(=O)[C@@H](O)[C@H](N)Cc1ccccc1)C(=O)O` [UBENIMEX] was tested. Which Activity (MDA-MB-231 [1]) did it give?
The Activity was “Toxic”.

And the Activity (MDA-MB-231 [2])?
Its Activity is “Active”.

What about the inhibition [3] of the same compound?
Its inhibition is “Active”.

Which results are given for `CC[C@H](C)[C@H](NC(=O)[C@@H](NC(=O)[C@@H](O)[C@H](N)Cc1ccccc1)C(C)C)C(=O)O`?
Activity (MDA-MB-231 [4]): inactive; Activity (MDA-MB-231 [5]): inactive; Activity (MDA-MB-231 [6]): 0.77%; Activity (MDA-MB-231 [7]): 9.05%; Activity (MDA-MB-231 [8]): 0.75%; Activity (MDA-MB-231 [9]): Active; Activity (MDA-MB-231 [10]): 89.98%; Activity (MDA-MB-231 [11]): inactive; Activity (MDA-MB-231 [12]): 89.5%; Activity (MDA-MB-231 [13]): 8.51%; Activity (MDA-MB-231 [14]): inactive; inhibition (MDA-MB-231 [15]): Active; Activity (MDA-MB-231 [16]): inactive; inhibition [17]: > 50%; inhibition (MDA-MB-231 [18]): Dose-dependent effect; Activity (MDA-MB-231 [2]): Active; Activity (MDA-MB-231 [19]): 0.73%; Activity (MDA-MB-231 [20]): 50%; Activity (MDA-MB-231 [21]): 0.71%; Activity (MDA-MB-231 [22]): <= 20%; Activity (MDA-MB-231 [23]): Active
